Assay [1] deals with αvβ1 integrin. In words: Inhibition of αvβ1-mediated cell attachment to fibronectin. The format is cell-based. The following applies: less active, FIG. 6. The source says:
(§1) Cell lines expressing different integrins were used to examine peptide inhibition of integrin function. A human melanoma cell line, C8161, a fibroblast cell line, WI-38, and an osteosarcoma cell line, MG-63 (described by Seftor et al., Canc. Res., 53:3411–3415 (1993); Vogel et al., J. Biol. Chem., 265:5934–5937 (1990); and Pytela et al. (1985), supra, respectively, each of which is incorporated herein by reference) attach to fibronectin through α5β1 integrin, as does B2/α27, a CHO cell line transfected with human α5. B2/C1, the control parental CHO line (Bauer et al., J. Cell. Biol. 116:477–487 (1992), which is incorporated herein by reference), attaches via […]. CHO cells C11 and NIH 3T3 cells express the endogenous Chinese hamster and mouse α5β1 integrins, respectively. The human melanoma cells, A375-M, attach to fibronectin through both α5β1 and α4β1 integrins (Mould et al., J. Biol. Chem. 265:4020–4024 (1990), which is incorporated herein by reference). CHO cell line B2/v7 express the αvβ1 integrin (Zhang et al., J. Cell. Biol. 122:235–242 (1993), which is incorporated herein by reference). […]
Cell lines expressing fibronectin-binding integrins were used to determine peptide activities against these integrins in the cell attachment assay described by Ruoslahti et al., Meth. […] Bound cells were quantitated by staining with 0.1% amido black. […]

Assay [2] deals with α5β1 integrin. In words: Cell attachment to immobilized […] peptide (B2/α27 vs B2/Cl cells). The assay is classed as cell-based, human. An excerpt:
Cell lines expressing fibronectin-binding integrins were used to determine peptide activities against these integrins in the cell attachment assay described by Ruoslahti et al., Meth. Enzymol., 144:803–831 (1982), which is incorporated herein by reference. Human plasma fibronectin was iodinated as described by Morla and Ruoslahti, J. Cell Biol., 118:421–429 (1992), which is incorporated herein by reference. Vitronectin was obtained from Telios Pharmaceuticals (San Diego, Calif.). […] Peptide was coated on plastic by incubating at 37° C. for 2 hours in phosphate buffered saline containing 0.25% glutaraldehyde to crosslink the peptide. Free binding sites on the plastic were blocked using BSA. Approximately 1×10^5 cells per well were allowed to attach for 1 hour in the presence or absence of competing peptides. Bound cells were quantitated by staining with 0.1% amido black.
In addition to the inhibition of cell attachment to natural ligands, attachment and inhibition assays were performed using the […] [SEQ ID NO:6] peptide as substrate. The microliter well were coated with […] [SEQ ID NO:6] using glutaraldehyde as described above. Briefly, peptide was coated on plastic by incubating at 37° C. for 2 hours in phosphate buffered saline containing 0.25% glutaraldehyde to crosslink the peptide and free binding sites on the plastic were blocked using BSA. The wells were then saturated with BSA followed by the addition of 50,000 B2/α27 or B2/Cl cells in the presence or absence of the indicated inhibitor. […] Bound cells were quantitated by staining with 0.1% amido black.

Assay [3] addresses T1, α5β1 integrin (Mus musculus, UniProt P09055+P11688).
T1 construct: CHO cells C11 and NIH 3T3 cells express the endogenous Chinese hamster and mouse α5β1 integrins, respectively; endogenous in cells; host or cells: NIH 3T3 cells
In words: Inhibition of attachment of NIH 3T3 cells to fibronectin. The format is cell-based. As to conditions: mouse NIH 3T3 cells.
Text: as §1
Cell lines expressing fibronectin-binding integrins were used to determine peptide activities against these integrins in the cell attachment assay described by Ruoslahti et al., Meth. […] Bound cells were quantitated by staining with 0.1% amido black.

α5β1 integrin, sequence (P08648 42-894 limits assumed): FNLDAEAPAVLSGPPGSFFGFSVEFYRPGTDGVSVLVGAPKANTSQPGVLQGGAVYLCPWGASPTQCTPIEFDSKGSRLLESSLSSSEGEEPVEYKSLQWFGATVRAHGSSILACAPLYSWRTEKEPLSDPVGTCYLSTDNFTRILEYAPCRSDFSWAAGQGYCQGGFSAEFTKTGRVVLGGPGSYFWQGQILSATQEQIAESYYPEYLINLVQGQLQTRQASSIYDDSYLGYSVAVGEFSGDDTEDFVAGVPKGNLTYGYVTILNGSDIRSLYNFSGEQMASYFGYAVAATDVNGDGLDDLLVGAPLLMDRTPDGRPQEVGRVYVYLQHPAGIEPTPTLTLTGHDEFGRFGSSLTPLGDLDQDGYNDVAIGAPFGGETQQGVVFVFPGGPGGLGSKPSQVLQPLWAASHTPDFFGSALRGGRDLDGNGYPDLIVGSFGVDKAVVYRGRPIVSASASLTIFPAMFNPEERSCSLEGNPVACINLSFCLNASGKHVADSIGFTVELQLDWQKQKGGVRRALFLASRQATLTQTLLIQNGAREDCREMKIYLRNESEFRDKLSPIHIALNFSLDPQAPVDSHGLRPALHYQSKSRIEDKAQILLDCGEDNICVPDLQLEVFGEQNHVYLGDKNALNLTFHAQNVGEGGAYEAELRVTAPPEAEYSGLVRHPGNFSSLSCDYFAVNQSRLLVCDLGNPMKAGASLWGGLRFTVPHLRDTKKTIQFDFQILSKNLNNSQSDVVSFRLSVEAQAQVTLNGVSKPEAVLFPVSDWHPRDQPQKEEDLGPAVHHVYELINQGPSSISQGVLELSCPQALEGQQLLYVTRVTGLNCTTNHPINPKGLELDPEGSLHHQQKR
α5β1 integrin, sequence (P08648 895-1049 limits assumed): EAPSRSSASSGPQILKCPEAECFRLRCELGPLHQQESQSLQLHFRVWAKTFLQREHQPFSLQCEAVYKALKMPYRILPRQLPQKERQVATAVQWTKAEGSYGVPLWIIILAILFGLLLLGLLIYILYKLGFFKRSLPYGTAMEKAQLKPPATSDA
T1 sequence (P11688 45-898 limits assumed): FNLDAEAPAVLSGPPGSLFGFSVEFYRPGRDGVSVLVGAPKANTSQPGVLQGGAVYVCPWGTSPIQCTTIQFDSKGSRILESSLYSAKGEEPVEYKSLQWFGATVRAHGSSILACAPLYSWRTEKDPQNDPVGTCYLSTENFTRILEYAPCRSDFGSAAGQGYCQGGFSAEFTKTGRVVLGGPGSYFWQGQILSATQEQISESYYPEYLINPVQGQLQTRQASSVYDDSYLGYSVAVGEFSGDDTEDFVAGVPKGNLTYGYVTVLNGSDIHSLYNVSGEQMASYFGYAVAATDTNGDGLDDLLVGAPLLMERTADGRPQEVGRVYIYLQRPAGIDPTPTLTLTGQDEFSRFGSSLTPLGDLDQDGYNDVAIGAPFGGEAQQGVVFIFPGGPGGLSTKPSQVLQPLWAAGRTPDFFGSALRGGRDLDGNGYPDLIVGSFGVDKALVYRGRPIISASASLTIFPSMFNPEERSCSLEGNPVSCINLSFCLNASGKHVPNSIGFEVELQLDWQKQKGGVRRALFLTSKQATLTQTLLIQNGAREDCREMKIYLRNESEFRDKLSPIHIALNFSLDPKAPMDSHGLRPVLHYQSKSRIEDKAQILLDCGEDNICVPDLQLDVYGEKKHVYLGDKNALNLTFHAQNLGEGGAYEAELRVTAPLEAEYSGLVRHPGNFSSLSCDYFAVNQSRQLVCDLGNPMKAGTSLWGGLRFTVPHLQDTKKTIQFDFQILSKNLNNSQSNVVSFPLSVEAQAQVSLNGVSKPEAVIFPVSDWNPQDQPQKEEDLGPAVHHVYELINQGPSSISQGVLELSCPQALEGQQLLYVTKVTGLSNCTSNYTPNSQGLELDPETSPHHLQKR
T1 sequence (P11688 899-1053 partner limits assumed): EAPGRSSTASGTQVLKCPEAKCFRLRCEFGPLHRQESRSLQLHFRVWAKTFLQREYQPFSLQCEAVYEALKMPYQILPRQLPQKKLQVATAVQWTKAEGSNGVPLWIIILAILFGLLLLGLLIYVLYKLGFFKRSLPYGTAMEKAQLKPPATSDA
T1 sequence (P09055 21-798): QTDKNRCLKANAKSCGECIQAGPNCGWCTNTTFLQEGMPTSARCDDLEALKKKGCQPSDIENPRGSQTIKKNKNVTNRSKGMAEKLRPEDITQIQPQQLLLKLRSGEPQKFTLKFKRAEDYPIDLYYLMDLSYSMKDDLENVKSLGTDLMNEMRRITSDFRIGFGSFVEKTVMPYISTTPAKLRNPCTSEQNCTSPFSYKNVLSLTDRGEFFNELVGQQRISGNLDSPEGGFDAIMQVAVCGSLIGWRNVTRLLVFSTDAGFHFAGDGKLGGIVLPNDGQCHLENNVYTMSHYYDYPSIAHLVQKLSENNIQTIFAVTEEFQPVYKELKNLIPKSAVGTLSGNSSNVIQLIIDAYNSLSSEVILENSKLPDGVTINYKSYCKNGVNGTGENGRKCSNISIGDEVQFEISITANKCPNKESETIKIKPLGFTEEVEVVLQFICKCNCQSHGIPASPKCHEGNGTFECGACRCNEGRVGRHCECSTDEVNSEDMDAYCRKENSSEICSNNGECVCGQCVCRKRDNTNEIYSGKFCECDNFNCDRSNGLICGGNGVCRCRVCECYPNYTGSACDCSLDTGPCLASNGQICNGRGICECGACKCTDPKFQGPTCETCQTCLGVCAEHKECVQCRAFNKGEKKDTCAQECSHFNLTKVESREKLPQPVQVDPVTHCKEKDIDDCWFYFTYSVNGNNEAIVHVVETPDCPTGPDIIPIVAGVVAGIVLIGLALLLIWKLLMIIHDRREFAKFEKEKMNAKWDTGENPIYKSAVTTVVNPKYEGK

As to GACRRETAWACGA, in assay [1], the “activity against αvβ1 relative to CELRGDGWC” value is “about 40 ×” and the “activity against αvβ1 relative to the cyclic RGD peptide” value is “greater than 100 ×”. In addition, in assay [2] (B2/α27 compared with B2/Cl cells, FIG. 8), the “promotion of cell adhesion by immobilized peptide” value is recorded as “promoted α5β1-mediated adhesion”. The “attachment of cell lines lacking these integrins or expressing non-human α5β1 to immobilized peptide” value in assay [2] (immobilized peptide) is listed as “did not attach”. In addition, in assay [2] (inhibitor at 1 mM, FIG. 8), the “inhibition of B2/α27 attachment to immobilized RRETAWA-containing peptide” value is reported as “inhibited”. The “blocking of attachment of NIH 3T3 cells to fibronectin” value in assay [3] is listed as “could not block”.

The values above are taken from patent publication US7067619B2, “Integrin-binding peptides” (La Jolla Cancer Research Foundation, priority 1993, dated 2006).
